What was measured:
[1] = tested on: SK-OV-3; experiment: Growth inhibition of human SKOV3 cells at 10 uM incubated for 48 hrs by sulforhodamine B assay relative to control; format: functional; conditions: SK-OV-3, 48 h, values are per cent of control
[2] = tested on: K562; experiment: Growth of human K562 cells at 10 uM incubated for 48 hrs by sulforhodamine B assay relative to control; conditions: K562, 48 h
[3] = tested on: UACC-62; experiment: Growth of human UACC62 cells at 10 uM incubated for 48 hrs by sulforhodamine B assay relative to control; conditions: UACC-62, 48 h
[4] = tested on: T47D; experiment: Growth inhibition of human T47D cells at 10 uM incubated for 48 hrs by sulforhodamine B assay relative to control; format: functional; conditions: values are per cent of control
[5] = tested on: IGROV-1; experiment: Growth of human IGROV1 cells at 10 uM incubated for 48 hrs by sulforhodamine B assay relative to control; conditions: IGROV-1, 48 h
[6] = tested on: SF-539; experiment: Growth of human SF539 cells at 10 uM incubated for 48 hrs by sulforhodamine B assay relative to control; conditions: SF-539, 48 h
[7] = tested on: NCI-H522; experiment: Growth of human NCI-H522 cells at 10 uM incubated for 48 hrs by sulforhodamine B assay relative to control; conditions: NCI-H522, 48 h
[8] = tested on: DU-145; experiment: Growth inhibition of human DU145 cells at 10 uM incubated for 48 hrs by sulforhodamine B assay relative to control; format: functional; conditions: DU-145, 48 h, values are per cent of control
[9] = tested on: SF-268; experiment: Growth of human SF268 cells at 10 uM incubated for 48 hrs by sulforhodamine B assay relative to control; conditions: SF-268, 48 h
[10] = tested on: COLO 205; experiment: Growth of human COLO205 cells at 10 uM incubated for 48 hrs by sulforhodamine B assay relative to control; conditions: COLO 205, 48 h
[11] = tested on: UACC-257; experiment: Growth of human UACC257 cells at 10 uM incubated for 48 hrs by sulforhodamine B assay relative to control; conditions: UACC-257, 48 h
[12] = tested on: HOP-92; experiment: Growth inhibition of human HOP92 cells at 10 uM incubated for 48 hrs by sulforhodamine B assay relative to control; format: functional; conditions: HOP-92, 48 h, values are per cent of control
[13] = tested on: OVCAR-4; experiment: Growth of human OVCAR4 cells at 10 uM incubated for 48 hrs by sulforhodamine B assay relative to control; conditions: OVCAR-4, 48 h
[14] = tested on: NCI-H23; experiment: Growth inhibition of human NCI-H23 cells at 10 uM incubated for 48 hrs by sulforhodamine B assay relative to control; format: functional; conditions: NCI-H23, 48 h, values are per cent of control
[15] = tested on: EKVX; experiment: Growth of human EKVX cells at 10 uM incubated for 48 hrs by sulforhodamine B assay relative to control
[16] = tested on: NCI/ADR-RES; experiment: Growth inhibition of human NCI/ADR-RES cells at 10 uM incubated for 48 hrs by sulforhodamine B assay relative to control; format: functional; conditions: values are per cent of control
[17] = tested on: LOX IMVI; experiment: Growth of human LOXIMVI cells at 10 uM incubated for 48 hrs by sulforhodamine B assay relative to control
[18] = tested on: TK-10; experiment: Growth inhibition of human TK10 cells at 10 uM incubated for 48 hrs by sulforhodamine B assay relative to control; format: functional; conditions: TK-10, 48 h, values are per cent of control
[19] = tested on: PC-3; experiment: Growth inhibition of human PC3 cells at 10 uM incubated for 48 hrs by sulforhodamine B assay relative to control; format: functional; conditions: PC-3, 48 h, values are per cent of control
[20] = tested on: MDA-MB-231; experiment: Growth inhibition of human MDA-MB-231 cells at 10 uM incubated for 48 hrs by sulforhodamine B assay relative to control; format: functional; conditions: MDA-MB-231, 48 h, values are per cent of control
[21] = tested on: HCT-116; experiment: Growth of human HCT116 cells at 10 uM incubated for 48 hrs by sulforhodamine B assay relative to control; conditions: HCT-116, 48 h
[22] = tested on: OVCAR-3; experiment: Growth of human OVCAR3 cells at 10 uM incubated for 48 hrs by sulforhodamine B assay relative to control; conditions: OVCAR-3, 48 h
[23] = tested on: NCI-H322M; experiment: Growth inhibition of human NCI-H322M cells at 10 uM incubated for 48 hrs by sulforhodamine B assay relative to control; format: functional; conditions: values are per cent of control
[24] = tested on: MCF7; experiment: Growth inhibition of human MCF7 cells at 10 uM incubated for 48 hrs by sulforhodamine B assay relative to control; format: functional; conditions: MCF7, 48 h, values are per cent of control
[25] = tested on: HL-60(TB); experiment: Growth inhibition of human HL-60(TB) cells at 10 uM incubated for 48 hrs by sulforhodamine B assay relative to control; format: functional; conditions: HL-60, 48 h, values are per cent of control
[26] = tested on: HT-29; experiment: Growth of human HT-29 cells at 10 uM incubated for 48 hrs by sulforhodamine B assay relative to control; conditions: HT-29, 48 h
[27] = tested on: SW-620; experiment: Growth of human SW620 cells at 10 uM incubated for 48 hrs by sulforhodamine B assay relative to control; conditions: SW-620, 48 h
[28] = tested on: RXF 393; experiment: Growth inhibition of human RXF393 cells at 10 uM incubated for 48 hrs by sulforhodamine B assay relative to control; format: functional; conditions: RXF 393, 48 h, values are per cent of control
[29] = tested on: SR; experiment: Growth of human SR cells at 10 uM incubated for 48 hrs by sulforhodamine B assay relative to control
[30] = tested on: SF-295; experiment: Growth of human SF295 cells at 10 uM incubated for 48 hrs by sulforhodamine B assay relative to control; conditions: SF-295, 48 h
[31] = tested on: CAKI-1; experiment: Growth inhibition of human Caki1 cells at 10 uM incubated for 48 hrs by sulforhodamine B assay relative to control; format: functional; conditions: CAKI-1, 48 h, values are per cent of control
[32] = tested on: SK-MEL-28; experiment: Growth of human SK-MEL-28 cells at 10 uM incubated for 48 hrs by sulforhodamine B assay relative to control; conditions: SK-MEL-28, 48 h
[33] = tested on: UO-31; experiment: Growth inhibition of human UO31 cells at 10 uM incubated for 48 hrs by sulforhodamine B assay relative to control; format: functional; conditions: UO-31, 48 h, values are per cent of control
[34] = tested on: SNB-75; experiment: Growth of human SNB75 cells at 10 uM incubated for 48 hrs by sulforhodamine B assay relative to control; conditions: SNB-75, 48 h

CC(C)(C)S/C(Nc1ccccc1)=C(\C#N)C(=O)Nc1ccccc1
growth, % of control at 10 µM [1]: 105% | growth, % of control at 10 µM [2]: 95.9% | growth, % of control at 10 µM [3]: 94.9% | growth, % of control at 10 µM [4]: 85.2% | growth, % of control at 10 µM [5]: 108% | growth, % of control at 10 µM [6]: 100% | growth, % of control at 10 µM [7]: 80.3% | growth, % of control at 10 µM [8]: 107% | growth, % of control at 10 µM [9]: 86.3% | growth, % of control at 10 µM [10]: 102% | growth, % of control at 10 µM [11]: 92.9% | growth, % of control at 10 µM [12]: 91.4% | growth, % of control at 10 µM [13]: 100% | growth, % of control at 10 µM [14]: 99.8% | growth, % of control at 10 µM [15]: 101% | growth, % of control at 10 µM [16]: 100% | growth, % of control at 10 µM [17]: 98.8% | growth, % of control at 10 µM [18]: 90.9% | growth, % of control at 10 µM [19]: 95.2% | growth, % of control at 10 µM [20]: 98.5% | growth, % of control at 10 µM [21]: 95.2% | growth, % of control at 10 µM [22]: 108% | growth, % of control at 10 µM [23]: 101% | growth, % of control at 10 µM [24]: 100% | growth, % of control at 10 µM [25]: 82.3% | growth, % of control at 10 µM [26]: 94.6% | growth, % of control at 10 µM [27]: 103% | growth, % of control at 10 µM [28]: 101% | growth, % of control at 10 µM [29]: 82.3% | growth, % of control at 10 µM [30]: 94.4% | growth, % of control at 10 µM [31]: 95% | growth, % of control at 10 µM [32]: 105% | growth, % of control at 10 µM [33]: 86.1% | growth, % of control at 10 µM [34]: 96.5%

Source: ChEMBL document CHEMBL4145553, “Design, synthesis, and biological evaluation of novel amide and hydrazide based thioether analogs targeting Histone deacteylase (HDAC) enzymes” (Eur J Med Chem, 2018)
